{"source": "patent US20150306056A1", "about": "“USE OF A DHA ESTER FOR PROPHYLACTIC AND/OR CURATIVE TREATMENT OF DREPANOCYTOSIS” (PIERRE FABRE MEDICAMENT, priority 2012, published 2015)", "format_in_all_cases": "in vivo", "key": {"[1]": {"assay": "DHA level of red blood cells in dogs given nicotinol DHA via oral route", "source_text": "(§1) Effect of nicotinol DHA on the fatty acid composition of plasma and red blood cells in dogs treated via oral route. The objective of this first study was to assay total DHA in the blood (plasma and red blood cells) of dogs given nicotinol DHA via oral route.\n(§2) Two groups of 10 dogs were used:\n(§3) Group 2: nicotinol DHA at 2 g per day.\n(§4) All the animals were given either a placebo or nicotinol DHA at 2 g per day via oral route for 28 days. Blood samples were taken at D1 (control), D7, D14, D21 and D28.\n(§5) The total lipids of the plasma (500 μL) and of the red blood cells (≈500 mg, the weighing of red blood cells is more accurate than measuring volume) were extracted with 4 mL of hexane/isopropanol mixture ([…]) in an acid medium (3M HCl, 500 μL) in the presence of margaric acid as internal standard (100 μg). After agitation and centrifugation (2000 g, 15 minutes, 10° C.) the organic phase was separated. A second extraction with 2 mL of the same solvent was performed under the same conditions. The organic phases were washed with 2 mL of saline water ([…]). The solvents were evaporated under a stream of nitrogen at 40° C.\n(§6) The total lipids derived from the plasma and red blood cells were then saponified (1 mL of 0.5M NaOH in methanol, 70° C., 30 minutes) then converted to methyl eaters (1 mL, 14% BF3 in methanol, 70° C., 15 minutes). After hydrolysio (4 mL […]) they were extracted with 4 then 2 mL of pentane. The organic phases were washed with 2 mL of saline water (9% NaCl). The solvents were evaporated under a stream of nitrogen at 40° C. The methyl esters were re-dissolved in 200 μL hexane for the plasma and red blood cells. The extracted fatty acid methyl esters were analysed by gas phase chromatography. The chromatograph (Agilent Technologies 6890N) was equipped with a split injector heated to 260° C. (1:10 division ratio), capillary column (length 60 m, diameter 0.25 mm) with BPX70 stationary phase (70% cyanopropylpolyphenylene-siloxane; thickness 0.25 μm) and flame ionization detector heated to 260° C. (hydrogen: 40 mL/min, air: 450 mL/min). The vector gas was helium (constant flow rate 1.5 mL/min). The temperature of the column was initially 150° C. and brought at a temperature gradient of 1.3° C./min up to 220° C. then 40° C./min to reach 260° C. for 5 minutes. The retention times of standard methyl esters allowed identification of the extracted fatty acid methyl esters.\n(§7) The DHA was quantitated relative to the internal standard (C17:0) added in known quantity to the sample before extraction of the total lipids. It is expressed in μg/mL for the plasma, in μg/g for the red blood cells. The values are given as a mean f standard deviation (in general n=10). The significant differences are shown by a Student's test with 5% threshold."}, "[2]": {"assay": "DHA plasma level in dogs given nicotinol DHA via oral route", "source_text": "as §1, §2, §3, §4, §5, §6, §7"}, "[3]": {"assay": "DHA concentration in human red blood cells after oral panthenol DHA (clinical trial)", "details": "irrespective of the dose (1, 2, 4 g/day), 28 days", "description": "Concentration of DHA in human red blood cells after absorption of panthenol DHA.\nThe objective of this clinical trial was to determine total DHA concentrations in the red blood cells of volunteers given a once daily oral dose of panthenol DHA for 28 days. Three doses of panthenol […] were tested in this trial: 1, 2 and 4 g/day. Twelve persons were included in this trial, 3 were given a placebo (without panthenol DHA) and 9 were given panthenol DHA.\nBlood samples were taken before administering panthenol DHA (corresponding to the baseline) and thereafter at days 4, 7, 10 14, 15, 19, 22, 25 and 29 to determine the DHA concentrations in the red blood cells. Two blood samples of 4 mL each were taken in tubes containing EDTA. The tubes were centrifuged at 3000 g for 15 minutes at ambient temperature within 30 minutes after the taking of the sample. […]\nThe lipids were extracted from the red blood cell samples (≈500 mg) using a hexane/isopropanol mixture (3:2 v/v) in an acid medium in the presence of margaric acid as internal standard (100 μg). […] After extraction with pentane, the extracted fatty acid methyl esters were analysed by gas phase chromatography. […]\nThe DHA was quantitated relative to the internal standard (C17:0) added in known quantity to the sample before extraction of the total lipids. […]"}, "[4]": {"assay": "DHA plasma level in rats given panthenol DHA via oral force-feeding", "details": "300 and 1000 mg/kg per day oral, 7 days (FIG. 1)", "description": "(§8) Incorporation of DHA in the plasma and red blood cells of rats receiving panthenol […] via oral route. The objective of this study was to assay total DHA in the blood (plasma and red blood cells) of rats given panthenol DHA via oral force-feeding for 7 days.\n(§9) Three groups of 4 rats (2 male and 2 female) were used:\n(§10) Group 1: control group (olive oil)\n(§11) Group 2: panthenol DHA at 300 mg/kg per day.\n(§12) Group 3: panthenol DHA at 1000 mg/kg per day.\n(§13) The total lipids of the plasma (500 μL) and red blood cells were extracted with a hexane/isopropanol mixture (3:2, v/v) in an acid medium (3M HCl, 1 mL) in the presence of margaric acid as internal standard. The total lipids from the plasma and red blood cell were saponified (i mL 0.5M NaOH in methanol, 70° C., 30 minutes) then converted to methyl esters (1 mL, 14% BF) in methanol, 70° C., 15 minutes). The fatty acid methyl esters were extracted with pentane then analysed by gas phase chromatography. The chromatograph (Agilent Technologies 6890N) was equipped with a split injector heated to 250° C. (division ratio 1:10) and a capillary column (length 60 m, diameter 0.25 mm) with BPX70 stationary phase (70% cyanopropylpolyphenylene-siloxane; thickness 0.25 μm). The vector gas was helium. […]\n(§14) The DHA was quantitated in relation to the internal standard (C17:0) added in known quantity to the sample before extraction of the total lipids. […]"}, "[5]": {"assay": "DHA level of red blood cells in rats given panthenol DHA via oral force-feeding", "details": "300 and 1000 mg/kg per day oral, 7 days (FIG. 1)", "description": "as §8, §9, §10, §11, §12, §13, §14"}, "[6]": {"details": "2 g/D oral, significant at every treatment time vs control group"}, "[7]": {"details": "group 2, D −1 (start of the experiment, before treatment with 2 g/D oral)"}}}
{"smiles": "CC/C=C\\C/C=C\\C/C=C\\C/C=C\\C/C=C\\C/C=C\\CCC(=O)OCc1cccnc1", "note": "[nicotinol DHA]", "values": [{"measurement": "DHA level of red blood cells, mean", "setting": "[1]; 2 g/D oral, D 7", "value": 4.7, "unit": "µg/mL"}, {"measurement": "DHA level of red blood cells, mean", "setting": "[1]; 2 g/D oral, D 14", "value": 7.1, "unit": "µg/mL"}, {"measurement": "DHA level of red blood cells, mean", "setting": "[1]; 2 g/D oral, D 21", "value": 8.3, "unit": "µg/mL"}, {"measurement": "DHA level of red blood cells, mean", "setting": "[1]; 2 g/D oral, D 28", "value": 8.7, "unit": "µg/mL"}, {"measurement": "effect of treatment on DHA level of red blood cells", "setting": "[1]; [6]", "value": "rise in the DHA level of red blood cells"}, {"measurement": "DHA level of red blood cells, mean", "setting": "[1]; [7]", "value": 1.7, "unit": "µg/mL"}, {"measurement": "DHA plasma level, mean", "setting": "[2]; 2 g/D oral, D 7", "value": 22.1, "unit": "µg/mL"}, {"measurement": "DHA plasma level, mean", "setting": "[2]; 2 g/D oral, D 14", "value": 23.7, "unit": "µg/mL"}, {"measurement": "DHA plasma level, mean", "setting": "[2]; 2 g/D oral, D 21", "value": 27.9, "unit": "µg/mL"}, {"measurement": "DHA plasma level, mean", "setting": "[2]; 2 g/D oral, D 28", "value": 32.6, "unit": "µg/mL"}, {"measurement": "effect of treatment on plasma DHA", "setting": "[2]; [6]", "value": "increase in plasma DHA"}, {"measurement": "DHA plasma level, mean", "setting": "[2]; [7]", "value": 3.8, "unit": "µg/mL"}]}
{"smiles": "CC/C=C\\C/C=C\\C/C=C\\C/C=C\\C/C=C\\C/C=C\\CCC(=O)OCCCNC(=O)[C@@H](O)C(C)(C)CO", "note": "[panthenol DHA, panthenyl docosahexaenoate]", "values": [{"measurement": "DHA level in human red blood cells versus placebo", "setting": "[3]", "value": "increased compared with the placebo group"}, {"measurement": "amount of DHA found in the plasma", "setting": "[4]; female rats", "value": "only increased with the higher dose"}, {"measurement": "amount of DHA found in the plasma", "setting": "[4]; male rats", "value": "dependent on the dose"}, {"measurement": "amount of DHA found in the red blood cells", "setting": "[5]; female rats", "value": "only increased with the higher dose"}, {"measurement": "amount of DHA found in the red blood cells", "setting": "[5]; male rats", "value": "dependent on the dose"}]}
